From patent US20110178024A1, “AMYLOID BETA-PEPTIDES AND METHODS OF USE THEREOF” (Ben Gurion University of the Negev Research and Development …, priority 2008, published 2011)
Entries after “also recorded” stand apart in the source; their conditions may differ. One block for each molecule: values may come before it.

Key:
[1] = system: splenocyte-derived T cells of HLA-DR15 humanized mice; assay: Proliferation assay of mouse-derived T cells, Aβ-immunized DR15 humanized mice; type: cell-based; conditions: for T-cell proliferation, in words: mice bearing the DRB1*1501 allele
Description: (§1) Mice were immunized by subcutaneous injection of Aβ 1-42 ([…]) emulsified in complete Freund's Adjuvant (CFA) H37Ra (Difco, Detroit, Mich., USA) or in incomplete Freund's Adjuvant (IFA; Sigma, Israel), as indicated in Figure legends. When indicated, pertussis toxin (PTX) (List Biological Laboratories, Campbell, Calif., USA) was injected intravenously (200 ng/mouse) on day 0 and again 48 hours later.
(§2) Popliteal lymph nodes or spleens of immunized mice were harvested and cultured (5×10^6 cells/ml) in U-shaped 96-well-plate culture dishes in DMEM containing 10% fetal calf serum, 10 mM HEPES, 1 mM sodium pyruvate, 10 mM nonessential amino acids, 1% Pen/Strep, and […] b-mercaptoethanol. After 72 hours, 3[H]thymidine ([…]) was added. Cells were harvested after 12 hours, and their radioactivity was measured.

[2] = system: Aβ-reactive T-cell line 1 (DRB1 1501/1502); assay: Human T-cell line proliferation assay, T-cell line 1; type: cell-based; conditions: for T-cell proliferation ([3H]thymidine incorporation), in words: T-cell line 1, autologous PBMCs
Description: (§3) PBMCs were isolated from the freshly drawn heparinized whole blood of each study participant (N=133) by Ficoll-Paque (Amersham Pharmacia Biotech, Uppsala, Sweden) gradient centrifugation, according to the manufacturer's instructions. Cells were cultured in 30 wells of 96-well round-bottom plates at 2×10^5 cells/well in RPMI medium (containing 2.5% nonautologous serum, 4 mM L-glutamine, 10 mM HEPES, 1 mM sodium pyruvate, and 10 mM nonessential amino acids) in the presence of pure human Aβ1-42 peptide. On the 5th day of culture, 10 U/ml of recombinant human interleukin (IL)-2 was added by replacing half of the medium with IL-2-containing medium. On day 7 the medium was replaced with IL-2-free medium. On day 10, half of the cells from each well were restimulated with irradiated autologous PBMCs in the presence or absence of 5 μg/ml Aβ for 48 hours and then pulsed with [3H] thymidine for 12 hours. Cells w then harvested, their radioactivity measured (in cpm), and the stimulation index (SI; (cpm in the presence of Aβ divided by cpm in the absence of Aβ) determined. Positive wells (SI≧2.5 and Δcpm of at least 2000) obtained in the split-well assay were restimulated, 14 days after their primary stimulation, in the presence of irradiated (7000 R) autologous PBMCs (2×10^5 cells/well) and Aβ1-42. T-cell lines were then supplemented with IL-2 (10 U/ml) after 48 hours and every 2 days thereafter until they reached a resting state.
(§4) Antigen (Ag)-specific proliferative responses were measured by culturing the contents of positive wells from the split-well assay with irradiated PBMCs (2×10^5/well) at 37° C. in duplicate wells in 96-well U-bottom microtiter plates in a final volume of 200 μl of culture medium alone or culture medium containing serially diluted nested Aβ peptides. After 48 hours, 1 μCi of [3H]thymidine (Amersham, Arlington Heights, Ill.) was added to each well in 50 μl of culture medium. The cells were harvested 16 hours later onto fiberglass filters with a cell harvester (Packard, Filtermate 196), and [3H]thymidine incorporation was determined with a Packard Matrix 96 direct counter.

[3] = system: Aβ-reactive T-cell line 2 (DRB1 1301/0401); assay: Human T-cell line proliferation assay, T-cell line 2; type: cell-based; conditions: T-cell line 2, autologous PBMCs
Description: as §3, §4

[4] = system: Aβ-reactive T-cell lines; assay: Epitope specificity and HLA-DR allele restriction of Aβ-reactive T-cell lines; type: cell-based, human; conditions: autologous and semi-autologous PBMCs as antigen-presenting cells
Description: as §3, §4
High-resolution HLA typing of PBMCs of the human subjects was carried out at the Brigham and Women's Hospital Clinical Laboratory using the PCR/RFLP method. Genomic DNA was extracted from whole blood or frozen cells. DNA was amplified using locus-specific and group-specific primers for DNA class II loci. DNA fragments were detected using agarose gel electrophoresis and subjected to restriction enzyme digestion, as recommended by the 10th International Histocompatibility Workshop (http://www.ihwg.org/components/ssopr.htm). The DNA fragments were then separated by agarose gel electrophoresis and the specific HLA-DR alleles were analyzed visually.
To identify the HLA-DR alleles that play a role in Aβ immunogenicity, Aβ-reactive T-cell lines were generated from the PBMCs of human subjects as described in Materials and Methods. These T cells were then restimulated with autologous or semi-autologous PBMCs (nonautologous PBMCs bearing one of the autologous DRB1 alleles) to determine their epitope specificity and identify their dominant epitope-presenting HLA-DR alleles. Overall, the PBMCs of 89 of the 133 individuals analyzed in this study yielded positive Aβ-reactive T-cell responses in the split-well assay as described in Materials and Methods and our previous publication ((2003). J Clin Invest 112:415-422). From these 89 PBMC samples, 39 Aβ-reactive T-cell lines were successfully generated and were analyzed for epitope specificity and HLA-DR allele restriction, as shown in FIG. 1. Table 2 lists the HLA-DR alleles whose expression by PBMCs was essential for proliferation of the Aβ-specific T-cell lines. The table also records the frequency of the HLA-DR alleles in our study population and lists the Aβ peptides harboring the dominant T-cell epitopes. […]

[5] = system: splenocyte-derived T cells of HLA-DR4 humanized mice; assay: Proliferation assay of mouse-derived T cells, Aβ-immunized DR4 humanized mice; type: cell-based; conditions: mice bearing the DR4 allele
Description: as §1, §2

[6] = molecular target: HLA-DR4 (DRB1*0401) (human); assay: cell-based or functional assay
[7] = molecular target: HLA-DR15 (DRB1*1501) (human); assay: cell-based or functional assay

Molecule: Aβ1-28: N-terminal fragment of Aβ, residues 1-28; nested overlapping Aβ peptide
T-cell proliferation, in words [1]: only a mild T-cell response | T-cell proliferation ([3H]thymidine incorporation), in words [2]: only mild T-cell proliferation

Molecule: Aβ19-33: nested overlapping Aβ peptide, residues 19-33 (FFAEDVGSNKGAIIG)
T-cell proliferation ([3H]thymidine incorporation), in words [3]: Substantially lower T-cell proliferation

Molecule: Aβ25-42: T-cell-stimulatory Aβ peptides between Aβ residues 25 and 42 (GSNKGAIIGLMVGGVVIA; Amyloid-beta protein 42; UniProt P05067 696-713, looked up, fragment)
DRB1 allele with which the T-cell-stimulatory Aβ peptide stimulates Aβ-reactive T-cell lines [4]: DRB1*1501

Molecule: GSNKGAIIGLMVGGV [Aβ25-39]
SI (stimulation index), T-cell proliferation ([1]; DR15 mice, 10 μg/ml, 72 hours): 8.8 | SI (stimulation index), T-cell proliferation ([2]; T-cell line 1, 5 μg peptide/ml, irradiated autologous PBMCs, 72 hours): 17.3 | T-cell proliferation ([3H]thymidine incorporation), in words [2]: specifically stimulated

Molecule: KLVFFAEDVGSNKGA (listed as Homo sapiens) [Aβ16-30]
T-cell proliferation ([3H]thymidine incorporation), in words [3]: stimulated

Molecule: LVFFAEDVGSNKGAI (listed as Homo sapiens) [Aβ17-31]
T-cell proliferation ([3H]thymidine incorporation), in words [3]: stimulated | DRB1 allele with which the T-cell-stimulatory Aβ peptide stimulates Aβ-reactive T-cell lines [4]: DRB1*1301

Molecule: QKLVFFAEDVGSNKG (listed as Homo sapiens) [Aβ15-29]
DRB1 allele with which the T-cell-stimulatory Aβ peptide stimulates Aβ-reactive T-cell lines [4]: DRB1*1001

Molecule: QKLVFFAEDVGSNKGAIIGL (listed as Homo sapiens) [Aβ15-34]
T-cell proliferation ([3H]thymidine incorporation), in words [3]: stimulated | DRB1 allele with which the T-cell-stimulatory Aβ peptide stimulates Aβ-reactive T-cell lines [4]: DRB1*0101

Molecule: QKLVFFAEDVGSNKGAIIGLMVGGVVIA (listed as Homo sapiens) [Aβ15-42]
T-cell proliferation ([3H]thymidine incorporation), in words [3]: triggered | T-cell proliferation, in words [1]: strong T-cell proliferation | T-cell proliferation, in words [5]: induced | DRB1 allele with which the T-cell-stimulatory Aβ peptide stimulates Aβ-reactive T-cell lines [4]: DRB1*1502; also recorded: DRB1*0301 | T-cell proliferation ([3H]thymidine incorporation), in words [2]: triggered

Molecule: VFFAEDVGSNKGAII (listed as Homo sapiens) [Aβ18-32]
T-cell proliferation ([3H]thymidine incorporation), in words [3]: stimulated | DRB1 allele with which the T-cell-stimulatory Aβ peptide stimulates Aβ-reactive T-cell lines [4]: DRB1*0404; also recorded: DRB1*0401

T-cell line 2 proliferation, SI at 5 µg peptide/ml [6]: 6.1 SI | T-cell proliferation of splenocytes of Aβ-immunized DR4 mice, SI at 10 µg/ml [6]: 9.2 SI
Molecule: VFFAEDVGSNKGAII [Aβ18-32 peptide]

T-cell line 1 proliferation, SI at 5 µg peptide/ml [7]: 12.6 SI | T-cell proliferation of splenocytes of Aβ-immunized DR15 mice, SI at 10 µg/ml [7]: 12.2 SI
Molecule: KGAIIGLMVGGVVIA [Aβ28-42 peptide]

T-cell line 1 proliferation, SI at 5 µg peptide/ml [7]: 17.3 SI | T-cell proliferation of splenocytes of Aβ-immunized DR15 mice, SI at 10 µg/ml [7]: 8.8 SI
Molecule: GSNKGAIIGLMVGGV [Aβ25-39 peptide]

T-cell line 2 proliferation, SI at 5 µg peptide/ml [6]: 6.2 SI | T-cell proliferation of splenocytes of Aβ-immunized DR4 mice, SI at 10 µg/ml [6]: 6.1 SI
Molecule: LVFFAEDVGSNKGAI [Aβ17-31 peptide]

T-cell line 1 proliferation, SI at 5 µg peptide/ml [7]: 15.8 SI | T-cell proliferation of splenocytes of Aβ-immunized DR15 mice, SI at 10 µg/ml [7]: 14.2 SI | T-cell line 2 proliferation, SI at 5 µg peptide/ml [6]: 7.8 SI | T-cell proliferation of splenocytes of Aβ-immunized DR4 mice, SI at 10 µg/ml [6]: 3.7 SI
Molecule: QKLVFFAEDVGSNKGAIIGLMVGGVVIA [Aβ15-42 peptide]

T-cell line 1 proliferation, SI at 5 µg peptide/ml [7]: 10.2 SI
Molecule: EDVGSNKGAIIGLMV [Aβ22-36 peptide]

T-cell line 2 proliferation, SI at 5 µg peptide/ml [6]: 6.4 SI | T-cell proliferation of splenocytes of Aβ-immunized DR4 mice, SI at 10 µg/ml [6]: 5.9 SI
Molecule: KLVFFAEDVGSNKGA [Aβ16-30 peptide]
